± gives the expanded uncertainty stated by the source.
Assay: xn = mol fraction of the nth substance listed
Conditions: 101.3 kPa, Liquid, Falling or rolling sphere viscometry

COC(=O)OC [dimethyl carbonate] + C1CCCCC1
Conditions	viscosity [mPa·s]
293.15 K, x1 = 0.0495	0.886 ± 0.021
293.15 K, x1 = 0.0987	0.814 ± 0.021
293.15 K, x1 = 0.2078	0.709 ± 0.021
293.15 K, x1 = 0.2961	0.66 ± 0.021
293.15 K, x1 = 0.3974	0.626 ± 0.021
293.15 K, x1 = 0.5014	0.608 ± 0.021
293.15 K, x1 = 0.6002	0.6 ± 0.021
293.15 K, x1 = 0.7028	0.593 ± 0.021
293.15 K, x1 = 0.7994	0.59 ± 0.021
293.15 K, x1 = 0.9017	0.597 ± 0.021
293.15 K, x1 = 0.9513	0.609 ± 0.021
293.15 K, x1 = 1	0.626 ± 0.021
298.15 K, x1 = 0.0378	0.833 ± 0.021
298.15 K, x1 = 0.0808	0.776 ± 0.021
298.15 K, x1 = 0.1764	0.681 ± 0.021
298.15 K, x1 = 0.2896	0.619 ± 0.021
298.15 K, x1 = 0.388	0.587 ± 0.021
298.15 K, x1 = 0.4938	0.567 ± 0.021
298.15 K, x1 = 0.5908	0.557 ± 0.021
298.15 K, x1 = 0.6864	0.553 ± 0.021
298.15 K, x1 = 0.7918	0.555 ± 0.021
298.15 K, x1 = 0.8976	0.561 ± 0.021
298.15 K, x1 = 0.9503	0.572 ± 0.021
298.15 K, x1 = 1	0.585 ± 0.021
303.15 K, x1 = 0.0391	0.758 ± 0.021
303.15 K, x1 = 0.0931	0.703 ± 0.021
303.15 K, x1 = 0.1875	0.632 ± 0.021
303.15 K, x1 = 0.2908	0.581 ± 0.021
303.15 K, x1 = 0.3897	0.545 ± 0.02
303.15 K, x1 = 0.4962	0.522 ± 0.02
303.15 K, x1 = 0.5958	0.508 ± 0.02
303.15 K, x1 = 0.6909	0.504 ± 0.02
303.15 K, x1 = 0.7975	0.507 ± 0.02
303.15 K, x1 = 0.8912	0.522 ± 0.021
303.15 K, x1 = 0.9441	0.528 ± 0.021
303.15 K, x1 = 1	0.536 ± 0.021
313.15 K, x1 = 0.101	0.605 ± 0.021
313.15 K, x1 = 0.1482	0.574 ± 0.02
313.15 K, x1 = 0.2563	0.524 ± 0.02
313.15 K, x1 = 0.3646	0.495 ± 0.02
313.15 K, x1 = 0.4661	0.477 ± 0.02
313.15 K, x1 = 0.572	0.468 ± 0.02
313.15 K, x1 = 0.6633	0.465 ± 0.02
313.15 K, x1 = 0.7699	0.47 ± 0.02
313.15 K, x1 = 0.8688	0.479 ± 0.02
313.15 K, x1 = 0.9757	0.491 ± 0.02
313.15 K, x1 = 0.9935	0.493 ± 0.02
313.15 K, x1 = 1	0.494 ± 0.02

COC(=O)OC [dimethyl carbonate] + CCCCCC
Conditions	viscosity [mPa·s]
293.15 K, x1 = 0.0722	0.312 ± 0.02
293.15 K, x1 = 0.1448	0.315 ± 0.02
293.15 K, x1 = 0.2286	0.325 ± 0.02
293.15 K, x1 = 0.3026	0.338 ± 0.02
293.15 K, x1 = 0.4102	0.359 ± 0.02
293.15 K, x1 = 0.5062	0.384 ± 0.02
293.15 K, x1 = 0.6026	0.412 ± 0.02
293.15 K, x1 = 0.7052	0.451 ± 0.02
293.15 K, x1 = 0.7974	0.494 ± 0.02
293.15 K, x1 = 0.901	0.552 ± 0.021
293.15 K, x1 = 0.9506	0.585 ± 0.021
293.15 K, x1 = 1	0.626 ± 0.021
298.15 K, x1 = 0.082	0.306 ± 0.02
298.15 K, x1 = 0.1269	0.311 ± 0.02
298.15 K, x1 = 0.2131	0.322 ± 0.02
298.15 K, x1 = 0.3197	0.336 ± 0.02
298.15 K, x1 = 0.3787	0.345 ± 0.02
298.15 K, x1 = 0.4712	0.362 ± 0.02
298.15 K, x1 = 0.5121	0.37 ± 0.02
298.15 K, x1 = 0.6067	0.392 ± 0.02
298.15 K, x1 = 0.6987	0.423 ± 0.02
298.15 K, x1 = 0.842	0.487 ± 0.02
298.15 K, x1 = 0.9248	0.53 ± 0.021
298.15 K, x1 = 0.9615	0.555 ± 0.021
298.15 K, x1 = 1	0.585 ± 0.021
303.15 K, x1 = 0.0468	0.287 ± 0.02
303.15 K, x1 = 0.0991	0.293 ± 0.02
303.15 K, x1 = 0.1951	0.305 ± 0.02
303.15 K, x1 = 0.295	0.314 ± 0.02
303.15 K, x1 = 0.3832	0.327 ± 0.02
303.15 K, x1 = 0.4865	0.342 ± 0.02
303.15 K, x1 = 0.5899	0.363 ± 0.02
303.15 K, x1 = 0.696	0.394 ± 0.02
303.15 K, x1 = 0.7947	0.433 ± 0.02
303.15 K, x1 = 0.8939	0.478 ± 0.02
303.15 K, x1 = 0.9436	0.507 ± 0.02
303.15 K, x1 = 1	0.536 ± 0.021
313.15 K, x1 = 0.0495	0.267 ± 0.02
313.15 K, x1 = 0.1	0.274 ± 0.02
313.15 K, x1 = 0.2092	0.286 ± 0.02
313.15 K, x1 = 0.3093	0.296 ± 0.02
313.15 K, x1 = 0.4043	0.306 ± 0.02
313.15 K, x1 = 0.4941	0.321 ± 0.02
313.15 K, x1 = 0.6052	0.347 ± 0.02
313.15 K, x1 = 0.7063	0.379 ± 0.02
313.15 K, x1 = 0.8046	0.416 ± 0.02
313.15 K, x1 = 0.9014	0.458 ± 0.02
313.15 K, x1 = 0.9497	0.477 ± 0.02
313.15 K, x1 = 1	0.494 ± 0.02
